Experimental findings from ChEMBL document CHEMBL1781941, “Synthesis and antitumor activity of 5-[1-(3-(dimethylamino)propyl)-5-halogenated-2-oxoindolin-(3Z)-ylidenemethyl]-2,4-dimethyl-1H-pyrrole-3-carboxamides” (Bioorg Med Chem Lett, 2011) are described below.

For assay [1], the system named is IM-9. Briefly: Antitumor activity against human IM9 cells. The class given is functional, cell-based.
Assay [2] deals with HUVEC. Briefly: Inhibition of bFGF-induced cell proliferation in HUVEC by MTT assay. The class given is functional, cell-based. To be noted: Homo sapiens.
In assay [3] the test system is HUVEC. Briefly: Inhibition of VEGF-induced cell proliferation in HUVEC by MTT assay. The class given is functional, cell-based. As to conditions: Homo sapiens. For orientation: Formazan colour is commonly taken as a measure of viable cells.
For assay [4], the system named is MDA-MB-231. Briefly: Antitumor activity against human MDA-MB-231 cells. It counts as functional, cell-based.
The subject of assay [5] is K562. Briefly: Antitumor activity against human K562 cells. The class given is functional, cell-based.
Assay [6] has as its system HL-60. Briefly: Antitumor activity against human HL60 cells. The class given is functional, cell-based.
For assay [7], the system named is A549. Briefly: Antitumor activity against human A549 cells. It counts as functional, cell-based.
Assay [8] relates to IM-9. Briefly: Ratio of Sunitinib IC50 to compound IC50 for human IM9 cells. The class given is functional.
Assay [9] has as its system K562. Briefly: Ratio of Sunitinib IC50 to compound IC50 for human K562 cells. It counts as functional.
Assay [10] relates to A549. Briefly: Ratio of Sunitinib IC50 to compound IC50 for human A549 cells. It counts as functional.
The subject of assay [11] is MDA-MB-231. Briefly: Ratio of Sunitinib IC50 to compound IC50 for human MDA-MB-231 cells. It counts as functional.

For the compound `Cc1[nH]c(/C=C2\C(=O)N(CCCN(C)C)c3ccc(Cl)cc32)c(C)c1C(=O)N1CCCC1`, the IC50 amounted to 9.36 µM in assay [1]; 4.65 µM in assay [2]; 3.92 µM in [3]; 11.5 µM in [4]; 6.58 µM in assay [5]; 7.82 µM in assay [6]. In assay [7], this compound came in with an IC50 of 14 µM.
As for `Cc1[nH]c(/C=C2\C(=O)N(CCCN(C)C)c3ccc(F)cc32)c(C)c1C(=O)N(C)C`, the concentration for half-maximal inhibition (IC50) was 17.9 µM in assay [1]; 19.9 µM in assay [2]; 5.23 µM in [3]; 19.2 µM in assay [4]; 13.6 µM in [5]; 14.8 µM in assay [6]. This compound also displayed an IC50 in assay [7] of 25.2 µM.
As to `Cc1[nH]c(/C=C2\C(=O)N(CCCN(C)C)c3ccc(Cl)cc32)c(C)c1C(=O)N(C)C`, the half-inhibitory concentration (IC50) in assay [1] came to 9.42 µM; in assay [2], 8.27 µM; in assay [3], 1.62 µM; in assay [4] it was 12 µM; in assay [5], 6.74 µM; in assay [6], 7.3 µM. The same compound registered an IC50 in assay [7] of 16 µM.
As for `CCN(CC)C(=O)c1c(C)[nH]c(/C=C2\C(=O)N(CCCN(C)C)c3ccc(F)cc32)c1C`, the half-maximal inhibitory concentration (IC50) in [1] came out at 14.1 µM; in [2], 10.5 µM; in assay [3], 3.96 µM; in assay [4] it was 13.7 µM; in assay [5] it was 4.88 µM; in [6], 10.7 µM. Further, the IC50 in assay [7] came to 29.9 µM.
As for `CCN(CC)C(=O)c1c(C)[nH]c(/C=C2\C(=O)N(CCCN(C)C)c3ccc(Cl)cc32)c1C`, the IC50 in assay [1] amounted to 6.28 µM; in assay [2] it was 4.87 µM; in [3], 2.9 µM; in assay [4] it was 6.82 µM; in assay [5], 2.07 µM; in [6] it was 4.02 µM. Besides, the concentration for half-maximal inhibition (IC50) in assay [7] came to 13.1 µM.
As for `Cc1[nH]c(/C=C2\C(=O)N(CCCN(C)C)c3ccc(F)cc32)c(C)c1C(=O)N1CCCC1`, the concentration for half-maximal inhibition (IC50) in assay [1] was 19.1 µM; in [2] it was 11.3 µM; in assay [3] it was 6.56 µM; in [4] it was 13.3 µM; in assay [5] it was 11.6 µM; in [6] it was 11.9 µM. Besides, the 50% inhibitory concentration (IC50) in assay [7] is 21.2 µM.
On to `Cc1[nH]c(/C=C2\C(=O)N(CCCN(C)C)c3ccc(F)cc32)c(C)c1C(=O)N1CCCCC1`, for which the 50% inhibitory concentration (IC50) came out at 4.83 µM in assay [1]; 5.27 µM in [2]; 4.06 µM in [3]; 11.5 µM in assay [4]; 4.09 µM in assay [5]; 4.39 µM in assay [6]. Moreover, in [7], the midpoint of inhibition, the IC50, lay at 18.7 µM.
As for `Cc1[nH]c(/C=C2\C(=O)N(CCCN(C)C)c3ccc(Cl)cc32)c(C)c1C(=O)N1CCCCC1`, the IC50 came to 4.49 µM in assay [1]; 2.04 µM in [2]; 1.31 µM in assay [3]; 5.68 µM in [4]; 2.14 µM in assay [5]; 3.99 µM in [6]. The IC50 in [7] was 7.33 µM.
With `CCN(CC)CCNC(=O)c1c(C)[nH]c(/C=C2\C(=O)N(CCCN(C)C)c3ccc(Cl)cc32)c1C.Cl.Cl.Cl`, the “Ratio IC50” value came to 2.1 in assay [8], 4.6 in assay [9], 2.1 in [10] and 2.1 in assay [11]. For the same compound, the IC50 in assay [1] worked out at 0.47 µM; in [2], 3.08 µM; in assay [3] it was 2.72 µM; in [4] it was 2.29 µM; in [5], 0.52 µM; in [6], 1.07 µM. Besides, in assay [7], inhibition was half-maximal at 3.11 µM (IC50).
With `CCN(CC)CCNC(=O)c1c(C)[nH]c(/C=C2\C(=O)N(CCCN(C)C)c3ccc(F)cc32)c1C`, the half-maximal inhibitory concentration (IC50) in [1] is 1.63 µM; in assay [2] it was 1.68 µM; in assay [3] it was 0.71 µM; in [4], 2.86 µM; in assay [5], 1.33 µM; in assay [6], 1.82 µM. Further, in assay [7], the IC50 was 5.08 µM.
On to `Cc1[nH]c(/C=C2\C(=O)N(CCCN(C)C)c3ccc(Cl)cc32)c(C)c1C(=O)NCCN(C)C`, for which the concentration for half-maximal inhibition (IC50) was found to be 0.45 µM in assay [1]; 3.36 µM in assay [2]; 1.11 µM in assay [3]; 2.44 µM in assay [4]; 0.53 µM in assay [5]; 1.17 µM in [6]. In addition, the half-inhibitory concentration (IC50) in [7] was 3.52 µM.
For `Cc1[nH]c(/C=C2\C(=O)N(CCCN(C)C)c3ccc(Cl)cc32)c(C)c1C(=O)N1CCN(C)CC1`, the IC50 was 1.47 µM in assay [1]; 2 µM in assay [2]; 1.34 µM in assay [3]; 5.06 µM in [4]; 1.41 µM in assay [5]; 3.56 µM in [6]. In assay [7], this compound gave a half-inhibitory concentration (IC50) of 6.78 µM.
Take `CCN1CCN(C(=O)c2c(C)[nH]c(/C=C3\C(=O)N(CCCN(C)C)c4ccc(Cl)cc43)c2C)CC1`: the IC50 in [1] stood at 2.25 µM; in assay [2], 1.77 µM; in [3] it was 1.02 µM; in [4], 3.46 µM; in assay [5] it was 2.45 µM; in assay [6], 2.62 µM. Besides, the IC50 in assay [7] was found to be 8.88 µM.
With `Cc1[nH]c(/C=C2\C(=O)N(CCCN(C)C)c3ccc(F)cc32)c(C)c1C(=O)NCCN(C)C`, the half-maximal inhibitory concentration (IC50) in assay [1] stood at 1.36 µM; in assay [2], 1.42 µM; in [3] it was 0.48 µM; in assay [4], 2.14 µM; in assay [5], 1.46 µM; in assay [6], 2.73 µM. The IC50 in [7] is 2.94 µM.
As for `Cc1[nH]c(/C=C2\C(=O)N(CCCN(C)C)c3ccc(F)cc32)c(C)c1C(=O)N1CCN(C)CC1`, the half-maximal inhibitory concentration (IC50) in assay [1] came out at 4.06 µM; in assay [2] it was 5.64 µM; in [3], 2.99 µM; in assay [4] it was 9 µM; in [5] it was 5.27 µM; in assay [6] it was 7.59 µM. For the same compound, inhibition in assay [7] was half-maximal at 11.1 µM (IC50).
Turning to `CCN1CCN(C(=O)c2c(C)[nH]c(/C=C3\C(=O)N(CCCN(C)C)c4ccc(F)cc43)c2C)CC1`, the IC50 in assay [1] stood at 7.26 µM; in [2], 3.38 µM; in assay [3] it was 1.58 µM; in assay [4], 8.09 µM; in assay [5], 5.98 µM; in assay [6], 13.4 µM. For the same compound, half-maximal inhibition in assay [7] (IC50) required 13.7 µM.
As to `CCN(CC)CCNC(=O)c1c(C)[nH]c(/C=C2\C(=O)Nc3ccc(F)cc32)c1C` [SUNITINIB], the IC50 in assay [1] worked out at 1.35 µM; in [2], 4.04 µM; in assay [3] it was 2.75 µM; in assay [4], 4.51 µM; in [5] it was 2.41 µM; in [6], 3.53 µM. In addition, in assay [7], the IC50 is 6.61 µM.

What is called IC50 is the concentration at which inhibition is half-maximal.
